Results from patent US11352393B2, “Myotoxin-neutralizing peptides” (priority 2018, dated 2022).
Square brackets hold non-standard residues; d marks the D form. Ends that are not written are not given here. Peptide text beside a SMILES is read from it.

Assays:
myotoxin II [1] = target: T1, myotoxin II (Bothrops asper, UniProt P24605); type: binding
[2] = Fluorescence polarization test for self-assembly or aggregation; type: physicochemical; details: absence of Myotoxin-II
myotoxin II [3] = target: T1, myotoxin II

T1 sequence (P24605 17-137 limits assumed): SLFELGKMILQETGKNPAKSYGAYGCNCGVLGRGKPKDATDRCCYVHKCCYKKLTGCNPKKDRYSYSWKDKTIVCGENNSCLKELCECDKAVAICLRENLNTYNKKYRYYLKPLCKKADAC

Compound	ELISA signal at different dilutions, myotoxin II coated versus uncoated wells (myotoxin II [1])	ELISA signal, myotoxin II coated wells versus uncoated control (myotoxin II [1])	Signal intensity and signal to noise ratio in cross reactivity ELISA (myotoxin II [1])	Self-assembling or aggregating ability (artificial increase of FP signal of TAMRA-probe) [2]	Cytotoxicity of Myotoxin II in presence of peptide (LDH release) (myotoxin II [3]) [%]
NGYWSSQQYMQQAPMPWRIP [Clone 4.10]	highest signals and also the highest signal to noise ratio in all of the dilutions	greatest difference between toxin coated wells and control	highest signal intensity and the best signal to noise ratio		
Y11D-Y (DHWVWGWNYQ[dY]QPQEWHTES) [Clone Y11D-Y]				did not artificially increase the FP signal	
SWEPYANPTRYKFHDW [Clone 1.8]	low difference for the dilutions of 1/100 and 1/1000	greatest difference between toxin coated wells and control			
VNRMLELKIMDYGGG [Clone 1.1]	low difference for the dilutions of 1/100 and 1/1000	greatest difference between toxin coated wells and control			
QSVTMGPGLITHSPIHTQSK [Clone 1.2]	low difference for the dilutions of 1/100 and 1/1000	greatest difference between toxin coated wells and control			
CC(C)[C@H](NC(=O)[C@H](Cc1c[nH]c2ccccc12)NC(=O)[C@H](Cc1c[nH]cn1)NC(=O)[C@@H](N)CC(=O)O)C(=O)N[C@@H](Cc1c[nH]c2ccccc12)C(=O)NCC(=O)N[C@@H](Cc1c[nH]c2ccccc12)C(=O)N[C@@H](CC(N)=O)C(=O)N[C@@H](Cc1ccc(O)cc1)C(=O)N[C@@H](CCC(N)=O)C(=O)N[C@@H](Cc1ccc(O)cc1)C(=O)N[C@@H](CCC(N)=O)C(=O)N1CCC[C@H]1C(=O)N[C@@H](CCC(N)=O)C(=O)N[C@@H](CCC(=O)O)C(=O)N[C@@H](Cc1c[nH]c2ccccc12)C(=O)N[C@@H](Cc1c[nH]cn1)C(=O)N[C@H](C(=O)N[C@@H](CCC(=O)O)C(=O)N[C@@H](CO)C(=O)O)[C@@H](C)O [Clone 1.9] (H-DHWVWGWNYQYQPQEWHTES-OH)					4
DYDRIPDIPMLGGGG [Clone 1.4]	low difference for the dilutions of 1/100 and 1/1000	greatest difference between toxin coated wells and control			
